From patent US4323550A, “Halogenohydrates of N,N-disubstituted derivatives of piperazine having anticariogenic properties” (priority 1976, dated 1982)

Experiment: Penetration of fluorine 18 into dental enamel after topical application (Muhlemann biopsy)
Parameters: species or system children
Source text: The anticariogenic activity of the difluorohydrate of N,N'-di(hydroxy-ethyl) piperazine has been evidenced by comparison with sodium fluoride known for its cariopreventive topical properties. A comparative study has been made of the penetration into the dental enamel of the fluorine contained in the molecule according to the invention and of the fluorine contained in sodium fluoride.
For this comparison the difluorohydrate of N,N'-di(hydroxy-ethyl) piperazine was marked at the fluorine 18, by isotopic exchange by dissolving some crystals of the product according to the invention in a solution of pure fluorine 18 without entrainer. The same was done for the sodium fluoride.
The study of the penetration of the fluorine into the enamel was made on several teeth to compare the behavior of the product of the invention and of sodium fluoride in supplying fluorine and in the penetration of the latter into the deepest layers of the dental tissue.
The tests were performed on 30 premolar teeth taken from normal children 9 to 11 years old. Eighteen teeth were treated by topical application of the radioactive solutions of the difluoro-hydrate of N,N'-di(hydroxy-ethyl) piperazine or of NaF adjusted to pH=3.5; the other 12 were treated with the same solutions adjusted to a pH of 7.4.
The radioactive solutions are obtained by dissolving 69 mg of the difluorohydrate and 81.3 mg of NaF, respectively, in 1 and 3 ml of fluorine 18 solution without entrainer. Thus solutions titering 1.23% fluorine are obtained.
As the difluorohydrate solution is already at pH=3.5, it is sufficient to acidify the NaF solution by addition of about 0.2 ml hydrochloric acid 6 M, to 3 ml of the radioactive solution.
In this case, the difluorohydrate's nature of organic salt can be preserved and its solution neutralized at 1.23% of fluorine in 1 ml by addition of about 110 mg of its N,N'-di(hydroxyethyl) piperazine base.
For the experimentation one determines two enamel plagues on each tooth. For this, one applies on the crowns, separated from each other by 2 or 3 mm, two round disks of a diameter of 3 mm cut out from adhesive tape. The crown is then covered with a layer of impermeable varnish. When the varnish is dry, the patches of adhesive tape are removed, thus bearing the two zones of enamel to be treated.
The spot application of the fluorinated solution is done by means of a sponge imbibed with 0.5 ml of the solution. This sponge is inserted in a polyethylene tube to limit the surface of contact between tooth and sponge to the circumference of the enamel zone treated.
The sampling of the enamel is done by Muhlemann's biopsy technique: A patch of blotting paper impregnated with 4 microliters of perchloric acid 2 M is applied on the trated enamel for 30 seconds. The enamel is dried with a second patch of blotting paper. It is on these patches which contain the dissolved enamel that we measure the radioactivity.
There are given in Table I all the results relating to the acid treatment, in Table II all the results relating to the treatment at neutral pH. The fluorine values are those obtained by measuring the radioactivity of the samples.
The columns […] and N2 represent the mass of fluorine measured on the second biopsy.
We have marked R1 and R1 and R2 the ratios G1 /G2 and N1 /N2, and R3 the ratio. [formula] R1 and R2 permitting to compare the quantities of fluorine at the same depth. R3 permits comparing the accumulation of fluorine in the tooth.

OCCN1CCN(CCO)CC1 [DIFLUOROHYDRATE OF N,N'-DI(HYDROXY-ETHYL) PIPERAZINE]
cases with R1 less than 1 (acid medium, 18 teeth): 16 cases | cases with R3 between 1 and 1.7 (acid medium, 18 teeth): 8 cases | cases with R3 greater than 1.7 (acid medium, 18 teeth): 4 cases | cases with R3 less than 1 (acid medium, 18 teeth): 5 cases | mean value of R3 (acid medium, 18 teeth, standard deviation 0.6): 1.5 | cases with R1 greater than 1 (neutral medium, 12 teeth): 10 cases | cases with R3 between 1 and 1.7 (neutral medium, 12 teeth): 7 cases | cases with R3 greater than 1.7 (neutral medium, 12 teeth): 2 cases | cases with R3 less than 1 (neutral medium, 12 teeth): 3 cases | mean value of R1 (neutral medium, 12 teeth): 3.0 | average of R3 (neutral medium, 12 teeth, standard deviation 0.4): 1.2 | average fluorine sampled in the two biopsies, acid pH compared with neutral pH (pH 3.5 versus pH 7.4): 2.6 | anticariogenic action compared with sodium fluoride (same pH conditions): effects comparable to those of sodium fluoride
